Assay results published in the NIST ThermoML archive (doi:10.1016/j.jct.2005.06.001).
Several values for one entry are separate records, joined by “and”; a condition that tells them apart may be missing. Identical values can stand only once.

Conditions: Crystal; for vapor or sublimation pressure: Calculated from knudsen effusion weight loss; for Normal melting temperature: visual observation

Cc1c2ccccc2cc2ccccc12 [9-methylanthracene]
Conditions | Normal melting temperature [°C] | vapor or sublimation pressure
– | 81.7 | –
329.16 K | – | 0.000185 kPa and 0.000194 kPa and 0.000184 kPa
331.19 K | – | 0.000237 kPa and 0.000244 kPa and 0.000236 kPa
333.17 K | – | 0.000271 kPa and 0.000297 kPa and 0.000286 kPa
335.16 K | – | 0.00036 kPa and 0.00035 kPa and 0.000345 kPa
337.15 K | – | 0.000427 kPa and 0.00045 kPa and 0.000435 kPa
339.16 K | – | 0.000562 kPa and 0.000577 kPa and 0.000559 kPa
341.17 K | – | 0.000666 kPa and 0.000681 kPa and 0.00066 kPa
343.21 K | – | 0.000829 kPa and 0.000851 kPa and 0.000821 kPa
345.19 K | – | 0.001004 kPa and 0.00104 kPa and 0.001011 kPa

Cc1c2ccccc2c(C)c2ccccc12 [9,10-dimethylanthracene]
Conditions | Normal melting temperature [°C] | vapor or sublimation pressure
– | 186.4 | –
363.18 K | – | 0.000229 kPa and 0.000242 kPa and 0.000213 kPa
365.2 K | – | 0.000287 kPa and 0.000302 kPa and 0.000271 kPa
367.18 K | – | 0.000344 kPa and 0.00036 kPa and 0.000332 kPa
369.18 K | – | 0.000444 kPa and 0.00041 kPa and 0.000425 kPa
371.2 K | – | 0.000498 kPa and 0.00053 kPa and 0.000494 kPa
373.19 K | – | 0.000613 kPa and 0.000654 kPa and 0.00061 kPa
375.18 K | – | 0.000736 kPa and 0.000761 kPa and 0.00071 kPa
377.17 K | – | 0.00088 kPa and 0.000913 kPa and 0.000841 kPa
378.98 K | – | 0.001057 kPa and 0.001092 kPa and 0.001008 kPa

CCc1ccc2cc3ccccc3cc2c1 [2-ethylanthracene]
Conditions | Normal melting temperature [°C] | vapor or sublimation pressure
– | 154.5 | –
343.27 K | – | 0.000164 kPa and 0.000165 kPa
345.13 K | – | 0.000203 kPa and 0.0002 kPa
347.1 K | – | 0.000239 kPa and 0.000235 kPa and 0.000241 kPa
349.26 K | – | 0.000306 kPa and 0.000309 kPa and 0.000301 kPa
351.15 K | – | 0.000378 kPa and 0.000372 kPa and 0.00037 kPa
353.11 K | – | 0.000465 kPa and 0.000456 kPa and 0.000458 kPa
355.27 K | – | 0.00056 kPa and 0.000562 kPa and 0.000569 kPa
357.07 K | – | 0.000684 kPa and 0.000668 kPa
359.05 K | – | 0.000828 kPa and 0.000833 kPa and 0.000824 kPa
